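48-hour exposure; five concentrations; linearly interpolated endpoints. At the GI50, growth is halved. The concentration for full growth arrest is given as TGI.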
Experiments:
Assay in all cases: DTP human tumour cell line panel, 48 h
[1] = system: SNB-19 CNS
[2] = system: RXF 393 renal
[3] = system: SNB-75 CNS
[4] = system: A549 NSCLC
[5] = system: SF-268 CNS
[6] = system: HL-60(TB) leukemia
[7] = system: U251 CNS
[8] = system: HCT-116 colon
[9] = system: HOP-92 NSCLC
[10] = system: SF-539 CNS
[11] = system: BT-549 breast
[12] = system: UACC-62 melanoma
[13] = system: RPMI-8226 leukemia
[14] = system: HCC-2998 colon
[15] = system: NCI/ADR-RES ovarian
[16] = system: HOP-62 NSCLC
[17] = system: MDA-MB-435
[18] = system: UO-31 renal
[19] = system: M14 melanoma
[20] = system: ACHN renal
[21] = system: NCI-H460 lung
[22] = system: SK-OV-3 ovarian
[23] = system: OVCAR-3 ovarian
[24] = system: NCI-H23 lung
[25] = system: MDA-MB-231 breast
[26] = system: SK-MEL-5 melanoma
[27] = system: CAKI-1 renal
[28] = system: SK-MEL-28 melanoma
[29] = system: OVCAR-8 ovarian
[30] = system: PC-3 prostate
[31] = system: SF-295 CNS
[32] = system: SR leukemia
[33] = system: A498 renal
[34] = system: KM12 colon
[35] = system: OVCAR-5 ovarian
[36] = system: SW-620 colon
[37] = system: HT29 colon
[38] = system: UACC-257 melanoma
[39] = system: NCI-H522 lung
[40] = system: T-47D breast
[41] = system: MCF7 breast
[42] = system: OVCAR-4 ovarian
[43] = system: TK-10 renal
[44] = system: MALME-3M melanoma
[45] = system: HS 578T breast
[46] = system: IGROV1 ovarian
[47] = system: NCI-H226 lung
[48] = system: COLO 205 colon
[49] = system: SN12C renal
[50] = system: HCT-15 colon
[51] = system: DU-145 prostate
[52] = system: EKVX NSCLC
[53] = system: 786-0 renal
[54] = system: SK-MEL-2 melanoma
[55] = system: LOX IMVI melanoma
[56] = system: K-562 leukemia
[57] = system: MOLT-4 leukemia
[58] = system: CCRF-CEM leukemia

## CC(=O)OC1Oc2ccccc2-c2oc(=O)c(-c3ccc(F)cc3)cc21 (stereo unspecified)
[1]
  GI50: 30.6 µM
  TGI: > 100 µM
[2]
  GI50: 26.8 µM
  TGI: 99.7 µM
[3]
  GI50: 5.59 µM
  TGI: 41.7 µM
[4]
  GI50: 38.8 µM
  TGI: > 100 µM
[5]
  GI50: 29.6 µM
  TGI: > 100 µM
[6]
  GI50: 24.9 µM
  TGI: > 100 µM
[7]
  GI50: 16.8 µM
  TGI: > 100 µM
[8]
  GI50: 31.5 µM
  TGI: > 100 µM
[9]
  GI50: 29.6 µM
  TGI: 96.9 µM
[10]
  GI50: 24.6 µM
  TGI: 74.6 µM
[11]
  GI50: 23.8 µM
  TGI: 69.1 µM
[12]
  GI50: 10.8 µM
  TGI: 33.6 µM
[13]
  GI50: 24.6 µM
  TGI: 60.3 µM
[14]
  GI50: 24.8 µM
  TGI: > 100 µM
[15]
  GI50: 60 µM
  TGI: > 100 µM
[16]
  GI50: 8.79 µM
  TGI: 40.2 µM
[17]
  GI50: 4.33 µM
  TGI: 40.3 µM
[18]
  GI50: 32.8 µM
  TGI: > 100 µM
[19]
  GI50: 25.3 µM
  TGI: 95.8 µM
[20]
  GI50: 31.8 µM
  TGI: > 100 µM
[21]
  GI50: 25.2 µM
  TGI: > 100 µM
[22]
  GI50: 35 µM
  TGI: > 100 µM
[23]
  GI50: 23.2 µM
  TGI: 71.7 µM
[24]
  GI50: 40.7 µM
  TGI: > 100 µM
[25]
  GI50: 33.9 µM
  TGI: > 100 µM
[26]
  GI50: 14.9 µM
  TGI: 31 µM
[27]
  GI50: 30.9 µM
  TGI: > 100 µM
[28]
  GI50: 32.6 µM
  TGI: > 100 µM
[29]
  GI50: 36.3 µM
  TGI: > 100 µM
[30]
  GI50: 32.7 µM
  TGI: > 100 µM
[31]
  GI50: 23.3 µM
  TGI: > 100 µM
[32]
  GI50: 2.86 µM
  TGI: 9.08 µM
[33]
  GI50: 28.3 µM
  TGI: 71.9 µM
[34]
  GI50: 12.2 µM
  TGI: 43 µM
[35]
  GI50: 66.5 µM
  TGI: > 100 µM
[36]
  GI50: 19 µM
  TGI: > 100 µM
[37]
  GI50: 21.6 µM
  TGI: > 100 µM
[38]
  GI50: 35.5 µM
  TGI: > 100 µM
[39]
  GI50: 20.2 µM
  TGI: 78.3 µM
[40]
  GI50: 22.5 µM
  TGI: 93.3 µM
[41]
  GI50: 6.01 µM
  TGI: 40 µM
[42]
  GI50: 28.2 µM
  TGI: > 100 µM
[43]
  GI50: 26.7 µM
  TGI: 83.8 µM
[44]
  GI50: 21.9 µM
  TGI: 70.7 µM
[45]
  GI50: 10.4 µM
  TGI: 74.7 µM
[46]
  GI50: 33.5 µM
  TGI: > 100 µM
[47]
  GI50: 29.7 µM
  TGI: 78.1 µM
[48]
  GI50: 36.3 µM
  TGI: > 100 µM
[49]
  GI50: 35.1 µM
  TGI: > 100 µM
[50]
  GI50: 20.9 µM
  TGI: > 100 µM
[51]
  GI50: 29 µM
  TGI: > 100 µM
[52]
  GI50: 9.46 µM
  TGI: 83.3 µM
[53]
  GI50: 17.7 µM
  TGI: 77.3 µM
[54]
  GI50: 39.5 µM
  TGI: > 100 µM
[55]
  GI50: 16.6 µM
  TGI: 73.2 µM
[56]
  GI50: 17.1 µM
  TGI: > 100 µM
[57]
  GI50: 14 µM
  TGI: 31.1 µM
[58]
  GI50: 23.4 µM
  TGI: 55.2 µM

Reference: PubChem BioAssay (NCI)
